Among the data in patent publication US5631401A, “Inhibitors of protein farnesyltransferase and squalene synthase” (Abbott Laboratories, priority 1995, dated 1997) are inhibition values, retold here.

Assay [1] has as its target T1, Rat brain protein farnesyltransferase (Rattus norvegicus, UniProt Q02293+Q04631).
T1 construct: The enzyme was purified according to Reiss, Y., et al., Cell, 62: 81-88 (1990), utilizing steps one through three; from tissue; host or cells: rat brain
In words: In vitro inhibition of protein farnesyltransferase (biotin-lamin substrate, scintillation proximity assay). The format is biochemical. Conditions: for inhibition at 10 µM: compared to uninhibited control; for inhibition at 1 µM: 1 μM (footnote *), read-out: % Inhibition at 1 μM (protein farnesyltransferase, values marked *). In outline:
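Protein farnesyltransferase isolated from rat brain was purified following steps one through three of the Reiss et al. method, giving a specific activity of about 10 nmol substrate farnesylated/mg enzyme/hour. Activity was measured with a commercial Amersham scintillation proximity assay kit, using biotin-lamin as the acceptor substrate and radioactive farnesyl diphosphate as the donor.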

For assay [2], the target named is T2, Rat liver microsomal squalene synthase (Rattus norvegicus, UniProt Q02769).
T2 construct: Rat liver microsomes, the source of enzyme, were prepared; from tissue; host or cells: rat liver microsomes
T2 sequence (Q02769 1-416): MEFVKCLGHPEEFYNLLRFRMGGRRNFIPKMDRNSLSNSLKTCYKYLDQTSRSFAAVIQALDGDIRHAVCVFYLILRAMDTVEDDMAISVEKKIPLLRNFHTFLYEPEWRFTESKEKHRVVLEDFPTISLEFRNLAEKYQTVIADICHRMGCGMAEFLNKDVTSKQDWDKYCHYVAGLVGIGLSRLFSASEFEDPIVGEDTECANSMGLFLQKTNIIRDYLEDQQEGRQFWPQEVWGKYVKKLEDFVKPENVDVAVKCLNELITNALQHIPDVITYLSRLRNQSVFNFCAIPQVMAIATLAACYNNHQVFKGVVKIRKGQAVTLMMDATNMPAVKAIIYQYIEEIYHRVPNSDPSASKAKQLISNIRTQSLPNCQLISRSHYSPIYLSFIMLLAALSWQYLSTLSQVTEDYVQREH
In words: In vitro inhibition of squalene synthase (rat liver microsomes, 3H-farnesyl diphosphate). In kind it is biochemical. Conditions: 1 μM; compared to controls with no test compound.

Molecules are shown by their SMILES.

In turn, `O=C(O)[C@H]1[C@H](C(=O)N(Cc2ccc(Oc3ccccc3)cc2)C2CCCC2)[C@H](C(=O)O)[C@H]1C(=O)N(Cc1ccc(Oc2ccccc2)cc1)C1CCCC1` [Example 97, (1α,2β,3β,4α)-1,3-Di[N-cyclopentyl-N-(4-phenoxybenzyl)aminocarbonyl]cyclobutane-2,4-dicarboxylic acid] registered an inhibition at 10 µM in assay [1] of 32%. The compound further returned an inhibition at 1 µM in assay [2] of 49%.

For `O=C(O)[C@H]1[C@H](C(=O)N(Cc2ccc(Oc3ccccc3)cc2)C2CCCCC2)[C@H](C(=O)O)[C@H]1C(=O)N(Cc1ccc(Oc2ccccc2)cc1)C1CCCCC1` [Example 98, (1α,2β,3β,4α)-1,3-Di[N-cyclohexyl-N-(4-phenoxybenzyl)aminocarbonyl]cyclobutane-2,4-dicarboxylic acid], the inhibition at 10 µM in assay [1] was 31%. In addition, in assay [2], the inhibition at 1 µM was found to be 55%.

`O=C(O)[C@H]1[C@H](C(=O)N(Cc2ccc(Oc3ccccc3)cc2)C2CCC2)[C@H](C(=O)O)[C@H]1C(=O)N(Cc1ccc(Oc2ccccc2)cc1)C1CCC1` [Example 99, (1α,2β,3β,4α)-1,3-Di[N-cyclobutyl-N-(4-phenoxybenzyl)aminocarbonyl]cyclobutane-2,4-dicarboxylic acid] yielded an inhibition at 10 µM in assay [1] of 52%. In assay [2], the inhibition at 1 µM was 20%.

In the case of `O=C(O)[C@H]1[C@H](C(=O)N(Cc2ccc(Oc3ccccc3)cc2)CC2CCC2)[C@H](C(=O)O)[C@H]1C(=O)N(Cc1ccc(Oc2ccccc2)cc1)CC1CCC1` [Example 100, (1α,2β,3β,4α)-1,3-Di[N-cyclobutylmethyl-N-(4-phenoxybenzyl)aminocarbonyl]cyclobutane-2,4-dicarboxylic acid], the results for the inhibition at 1 µM in assay [1] and in assay [2] were 21% and 46%, respectively.

For the compound `O=C(O)[C@H]1[C@H](C(=O)N(Cc2ccc(Oc3ccccc3)cc2)CC2CCCC2)[C@H](C(=O)O)[C@H]1C(=O)N(Cc1ccc(Oc2ccccc2)cc1)CC1CCCC1` [Example 101, (1α,2β,3β,4α)-1,3-Di[N-cyclopentylmethyl-N-(4-phenoxybenzyl)aminocarbonyl]cyclobutane-2,4-dicarboxylic acid], the inhibition at 1 µM in assay [1] was 26%; in assay [2] it was 34%.

Consider `CC[C@@H](C)N(Cc1ccc(Oc2ccccc2)cc1)C(=O)[C@H]1[C@H](C(=O)O)[C@H](C(=O)N(Cc2ccc(Oc3ccccc3)cc2)[C@H](C)CC)[C@H]1C(=O)O` [Example 102, (1α,2β,3β,4α)-1,3-Di[N-((2R)-Sec-butyl)-N-(4-phenoxybenzyl)aminocarbonyl]cyclobutane-2,4-dicarboxylic acid], for which testing at 10 µM in assay [1] gave an inhibition of 37%. Testing at 1 µM in assay [2] gave an inhibition of 48%.
